Several values for one entry are separate records, joined by “and”; a condition that tells them apart may be missing. Identical values can stand only once. Toxic doses and inconclusive results are not listed. How the source made its calls: active means survival T/C of 150% or more; inactive means T/C below 125% in these data.
System: CD2F1 mice, L1210 leukemia ip, survival T/C
Assay: NCI In Vivo Anticancer Drug Screen. Data for tumor model L1210 Leukemia (intraperitoneal) in CD2F1 (CDF1) mice
Settings: endpoint: mean survival time, higher = longer survival
Summary of the method: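 In this screen, transplantable tumors were grown in mice given either the compound or its vehicle. Results were expressed as the treated measurement relative to the control measurement.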

[1] = dose: 100.0 mg/kg/injection, schedule: Q01DX001 (ip), vehicle: saline with Tween-80
[2] = dose: 200.0 mg/kg/injection, schedule: Q01DX001 (ip), vehicle: saline with Tween-80
[3] = dose: 400.0 mg/kg/injection, schedule: Q01DX001 (ip), vehicle: saline with Tween-80
[4] = dose: 100.0 mg/kg/injection, schedule: Q04DX003 (ip), vehicle: saline with Tween-80
[5] = dose: 200.0 mg/kg/injection, schedule: Q04DX003 (ip), vehicle: saline with Tween-80
[6] = dose: 400.0 mg/kg/injection, schedule: Q04DX003 (ip), vehicle: saline with Tween-80
[7] = dose: 50.0 mg/kg/injection, schedule: Q01DX009 (ip), vehicle: saline with Tween-80
[8] = dose: 100.0 mg/kg/injection, schedule: Q04DX002 (ip), vehicle: saline with Tween-80
[9] = dose: 200.0 mg/kg/injection, schedule: Q01DX009 (ip), vehicle: saline with Tween-80
[10] = dose: 200.0 mg/kg/injection, schedule: Q04DX002 (ip), vehicle: saline with Tween-80
[11] = dose: 400.0 mg/kg/injection, schedule: Q01DX009 (ip), vehicle: saline with Tween-80
[12] = dose: 400.0 mg/kg/injection, schedule: Q04DX002 (ip), vehicle: saline with Tween-80
[13] = dose: 100.0 mg/kg/injection, schedule: Q01DX009 (ip), vehicle: saline with Tween-80
[14] = dose: 25.0 mg/kg/injection, schedule: Q04DX002 (ip), vehicle: saline with Tween-80
[15] = dose: 50.0 mg/kg/injection, schedule: Q04DX002 (ip), vehicle: saline with Tween-80
[16] = dose: 50.0 mg/kg/injection, schedule: Q04DX003 (ip), vehicle: saline with Tween-80

Measured: T/C

c1cnc2c(OB(C3CCCCC3)C3CCCCC3)cccc2c1
inactive: [1] 105 % of control | [2] 91 % of control | [3] 91 % of control

O=C(c1ccccc1)c1c(-c2ccccc2)c(-c2ccccc2)c(-c2ccccc2)c(-c2ccccc2)c1-c1ccccc1
inactive: [4] 89 % of control | [5] 90 % of control | [6] 90 % of control

CCc1nc(N)nc(N)c1-c1ccc(Cl)cc1
inactive: dose: 2.0 mg/kg/injection, schedule: Q03HX008 (ip), vehicle: saline 92 % of control | dose: 2.0 mg/kg/injection, schedule: Q03HX016 (ip), vehicle: saline 89 % of control | dose: 2.0 mg/kg/injection, schedule: Q03HX024 (ip), vehicle: saline 88 % of control | dose: 4.0 mg/kg/injection, schedule: Q03HX008 (ip), vehicle: saline 90 % of control | dose: 4.0 mg/kg/injection, schedule: Q03HX016 (ip), vehicle: saline 91 % of control | dose: 4.0 mg/kg/injection, schedule: Q03HX024 (ip), vehicle: saline 86 % of control | dose: 8.0 mg/kg/injection, schedule: Q01DX009 (oral), vehicle: saline 92 % of control | dose: 8.0 mg/kg/injection, schedule: Q03HX008 (ip), vehicle: saline 92 % of control | dose: 8.0 mg/kg/injection, schedule: Q03HX016 (ip), vehicle: saline 87 % of control | dose: 8.0 mg/kg/injection, schedule: Q03HX024 (ip), vehicle: saline 88 % of control and 93 % of control | dose: 16.0 mg/kg/injection, schedule: Q01DX001 (ip), vehicle: saline 107 % of control | dose: 16.0 mg/kg/injection, schedule: Q01DX001 (oral), vehicle: saline 101 % of control | dose: 16.0 mg/kg/injection, schedule: Q01DX009 (ip), vehicle: saline 101 % of control | dose: 16.0 mg/kg/injection, schedule: Q01DX009 (oral), vehicle: saline 95 % of control | dose: 16.0 mg/kg/injection, schedule: Q03HX008 (ip), vehicle: saline 89 % of control and 91 % of control | dose: 16.0 mg/kg/injection, schedule: Q03HX016 (ip), vehicle: saline 91 % of control and 100 % of control | dose: 16.0 mg/kg/injection, schedule: Q03HX024 (ip), vehicle: saline 90 % of control and 96 % of control | dose: 16.0 mg/kg/injection, schedule: Q04DX003 (ip), vehicle: saline 88 % of control | dose: 16.0 mg/kg/injection, schedule: Q08DX002 (ip), vehicle: saline 97 % of control | dose: 32.0 mg/kg/injection, schedule: Q01DX001 (ip), vehicle: saline 98 % of control | dose: 32.0 mg/kg/injection, schedule: Q01DX001 (oral), vehicle: saline 96 % of control | dose: 32.0 mg/kg/injection, schedule: Q01DX009 (ip), vehicle: saline 106 % of control | dose: 32.0 mg/kg/injection, schedule: Q01DX009 (oral), vehicle: saline 112 % of control | dose: 32.0 mg/kg/injection, schedule: Q04DX003 (ip), vehicle: saline 87 % of control | dose: 32.0 mg/kg/injection, schedule: Q08DX002 (ip), vehicle: saline 94 % of control | dose: 64.0 mg/kg/injection, schedule: Q01DX001 (ip), vehicle: saline 100 % of control | dose: 64.0 mg/kg/injection, schedule: Q01DX001 (oral), vehicle: saline 98 % of control | dose: 64.0 mg/kg/injection, schedule: Q01DX009 (ip), vehicle: saline 108 % of control | dose: 64.0 mg/kg/injection, schedule: Q01DX009 (oral), vehicle: saline 120 % of control and 96 % of control | dose: 64.0 mg/kg/injection, schedule: Q04DX003 (ip), vehicle: saline 86 % of control and 95 % of control | dose: 64.0 mg/kg/injection, schedule: Q08DX002 (ip), vehicle: saline 95 % of control | dose: 128.0 mg/kg/injection, schedule: Q01DX001 (ip), vehicle: saline 100 % of control | dose: 128.0 mg/kg/injection, schedule: Q01DX001 (oral), vehicle: saline 91 % of control | dose: 128.0 mg/kg/injection, schedule: Q04DX003 (ip), vehicle: saline 96 % of control | dose: 128.0 mg/kg/injection, schedule: Q08DX002 (ip), vehicle: saline 93 % of control and 101 % of control

COc1cc([N+](=O)[O-])ccc1NC(=O)Nc1nccs1
inactive: [7] 96 % of control and 97 % of control | [1] 97 % of control | [8] 87 % of control | [4] 98 % of control | [2] 92 % of control | [9] 95 % of control and 100 % of control and 104 % of control | [10] 95 % of control | [5] 95 % of control | [3] 100 % of control | [11] 97 % of control | [12] 102 % of control | [6] 101 % of control

CCOC(=O)Nc1cccc(F)c1C
inactive: [8] 105 % of control | [10] 109 % of control | [12] 94 % of control

Cc1ccc(S(=O)(=O)/C=C(\I)c2ccccc2)cc1
inactive: [13] 91 % of control | [4] 96 % of control | [9] 94 % of control | [5] 96 % of control | [11] 94 % of control | [6] 93 % of control

O=[N+]([O-])c1cccc(S(=O)(=O)Oc2ccc(-c3ccccc3)cc2)c1
inactive: [13] 87 % of control | [9] 91 % of control | [11] 89 % of control

O=S(=O)(Nc1c(Cl)c(Cl)c(NS(=O)(=O)c2ccccc2)c(Cl)c1Cl)c1ccccc1
inactive: dose: 100.0 mg/kg/injection, schedule: Q04DX003 (ip), vehicle: Klucel (hydroxypropylcellulose) (HPC) 98 % of control | dose: 200.0 mg/kg/injection, schedule: Q04DX003 (ip), vehicle: Klucel (hydroxypropylcellulose) (HPC) 91 % of control | dose: 400.0 mg/kg/injection, schedule: Q04DX003 (ip), vehicle: Klucel (hydroxypropylcellulose) (HPC) 103 % of control

O=C1c2ccc([N+](=O)[O-])cc2-c2c1cccc2[N+](=O)[O-]
inactive: [14] 95 % of control | [15] 87 % of control

CCCCC=C1CC(C)CCC(C)C1 (stereo unspecified)
inactive: dose: 100.0 mg/kg/injection, schedule: Q04DX003 (ip), vehicle: saline 101 % of control | dose: 200.0 mg/kg/injection, schedule: Q04DX003 (ip), vehicle: saline 104 % of control | dose: 400.0 mg/kg/injection, schedule: Q04DX003 (ip), vehicle: saline 104 % of control

[CH3][Sn]1([CH3])[O]C2C(CO)OC(n3ccc4c(N)ncnc43)C2[O]1 (stereo unspecified)
inactive: dose: 0.78 mg/kg/injection, schedule: Q01DX005 (ip), vehicle: other 111 % of control | dose: 1.56 mg/kg/injection, schedule: Q01DX005 (ip), vehicle: other 107 % of control | dose: 3.13 mg/kg/injection, schedule: Q01DX005 (ip), vehicle: other 115 % of control

CCNC(=S)N(Cc1ccccc1)Cc1ccccc1
inactive: [16] 103 % of control | [4] 89 % of control and 98 % of control | [5] 100 % of control | [6] 87 % of control

NC(=O)c1cn(C2OC(CO)C3OC32)c2ncnc(NC(=O)c3ccccc3)c12 (stereo unspecified)
inactive: dose: 25.0 mg/kg/injection, schedule: Q01DX009 (ip), vehicle: distilled water + Tween-80 90 % of control | dose: 50.0 mg/kg/injection, schedule: Q01DX009 (ip), vehicle: distilled water + Tween-80 93 % of control | dose: 100.0 mg/kg/injection, schedule: Q01DX009 (ip), vehicle: distilled water + Tween-80 93 % of control | dose: 200.0 mg/kg/injection, schedule: Q01DX009 (ip), vehicle: distilled water + Tween-80 97 % of control | dose: 400.0 mg/kg/injection, schedule: Q01DX009 (ip), vehicle: distilled water + Tween-80 100 % of control

C#CC(C)(C)OCC(CCl)OC(N)=O (stereo unspecified)
inactive: dose: 25.0 mg/kg/injection, schedule: Q01DX009 (ip), vehicle: saline with Tween-80 97 % of control | [7] 97 % of control | [13] 100 % of control | [9] 102 % of control

COc1ccc(/C(C)=N/N=C(\C)c2ccc(OC)cc2)cc1
inactive: dose: 25.0 mg/kg/injection, schedule: Q04DX003 (ip), vehicle: saline with Tween-80 105 % of control | [16] 102 % of control | [4] 102 % of control

CCCCCCC(=O)CCCCCC/C=C/CC(O)C(O)C(N)(CO)C(=O)O (stereo unspecified)
inactive: dose: 12.5 mg/kg/injection, schedule: Q04DX002 (ip), vehicle: saline with Tween-80 86 % of control

COc1cc(NC(=O)Nc2ccccc2Cl)c(OC)cc1Cl
inactive: [14] 98 % of control | [15] 94 % of control | [8] 102 % of control

Source: PubChem BioAssay AID256 (DTP/NCI, 2004)
